Experimental data taken from US11492357B2, “Thieno[3,2-d]pyrimidine derivative compound having inhibitory activity for protein kinase” (Hanmi Pharm. Co., Ltd., priority 2017, dated 2022).
Structures can show the parent of a compound that is named as a salt.

How the values were obtained:
[1] = tested on: SK-MEL-30 melanoma cells (N-RAS Q61K mutant); experiment: Inhibition of cell growth of N-RAS Q61K mutant SK-MEL-30 cells (SRB); assay type: cell-based; details: Homo sapiens, 72 hours incubation, SRB staining
Experimental: N-RAS^Q61K mutant SK-MEL-30 melanoma cell line (ACC-151) was obtained from DSMZ (Deutsche Sammlung von Mikroorganismen und Zellkulturen GmbH, Germany). SK-MEL30 cells express wildtype B-RAF and mutant N-RAS (Q61K). SK-MEL-30 cells were incubated in a RPMI medium supplemented with 10% FBS and 1% penicillin/streptomycin (Gibco BRL) under 37° C., 5% CO2 and 95% air. Cells were seeded in 96-well plates at a density of 5,000 cells/well, and cultured for 18 hours or more. Then cells were treated with 0.1-10 μM (1/10 serial dilution) of test compounds, and incubated for 72 hours.
To evaluate cell viabilities, SK-MEL-30 cell lines were fixed with 10% TCA (trichloroacetic acid), stained with SRB (sulforhodamine B), and the absorbance was measured at 540 nm. Then, GI50, i.e., the concentration of drug to cause 50% reduction in proliferation of cancer cells, was calculated therefrom. The growth rates of cancer cells were calculated by Equation 1 or 2. [(Ti−Tz)/(C−Tz)]×100 (for […]) Equation 1 [(Ti−Tz)/Tz]×100 (for Ti<Tz) Equation 2
In Equation 1 and 2, ‘Tz’ refers to the density of untreated cells, which is the absorbance in 0% cell growth groups. ‘C’ refers to the density of cells cultured by adding only medium, and ‘Ti’ refers to the density of cells treated with test compounds. […]

[2] = molecular target: B-RAF V600E (Homo sapiens (Human), UniProt P15056, V600E); experiment: RAF kinase inhibitory activity, Kinase Profiling Service; assay type: biochemical
Sequence of B-RAF V600E (P15056 whole entry V600E): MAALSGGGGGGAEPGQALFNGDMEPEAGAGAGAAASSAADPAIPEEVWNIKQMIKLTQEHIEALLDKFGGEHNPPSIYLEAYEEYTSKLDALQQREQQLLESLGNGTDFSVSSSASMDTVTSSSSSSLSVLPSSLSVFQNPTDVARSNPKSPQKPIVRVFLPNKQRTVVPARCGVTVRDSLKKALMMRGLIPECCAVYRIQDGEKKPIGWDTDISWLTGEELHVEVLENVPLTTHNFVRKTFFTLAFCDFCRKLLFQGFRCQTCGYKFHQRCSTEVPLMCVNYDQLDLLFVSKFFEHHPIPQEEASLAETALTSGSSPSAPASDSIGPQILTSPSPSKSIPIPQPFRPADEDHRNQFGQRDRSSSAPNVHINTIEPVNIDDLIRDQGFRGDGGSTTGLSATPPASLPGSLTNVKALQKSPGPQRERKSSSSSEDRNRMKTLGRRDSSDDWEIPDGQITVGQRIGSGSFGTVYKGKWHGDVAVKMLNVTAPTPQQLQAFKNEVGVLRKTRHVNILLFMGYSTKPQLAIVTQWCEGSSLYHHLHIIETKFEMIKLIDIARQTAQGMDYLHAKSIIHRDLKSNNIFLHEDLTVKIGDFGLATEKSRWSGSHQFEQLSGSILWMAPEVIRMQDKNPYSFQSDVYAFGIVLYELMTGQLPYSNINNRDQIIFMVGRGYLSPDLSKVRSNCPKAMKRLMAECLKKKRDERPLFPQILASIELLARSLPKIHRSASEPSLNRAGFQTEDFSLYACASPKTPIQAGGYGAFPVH
Experimental: (§1) The levels of enzymatic inhibition of the compound were calculated as percent inhibition at various concentrations. Based on percent inhibition, dose-response curves were plotted using GraphPad Prism software.

[3] = molecular target: B-RAF wild type (Homo sapiens (Human), UniProt P15056); experiment: as above; assay type: biochemical; details: read-out: B-RAF WT (IC50)
Sequence of B-RAF wild type (P15056 whole entry): as the sequence (P15056 whole entry V600E) above, with E600V counted along it
Experimental: as §1

[4] = molecular target: RAF1 (C-RAF) Y340D/Y341D (Homo sapiens (Human), UniProt P04049, Y340D/Y341D); experiment: as above; assay type: biochemical
Sequence of RAF1 (C-RAF) Y340D/Y341D (P04049 whole entry Y340D/Y341D): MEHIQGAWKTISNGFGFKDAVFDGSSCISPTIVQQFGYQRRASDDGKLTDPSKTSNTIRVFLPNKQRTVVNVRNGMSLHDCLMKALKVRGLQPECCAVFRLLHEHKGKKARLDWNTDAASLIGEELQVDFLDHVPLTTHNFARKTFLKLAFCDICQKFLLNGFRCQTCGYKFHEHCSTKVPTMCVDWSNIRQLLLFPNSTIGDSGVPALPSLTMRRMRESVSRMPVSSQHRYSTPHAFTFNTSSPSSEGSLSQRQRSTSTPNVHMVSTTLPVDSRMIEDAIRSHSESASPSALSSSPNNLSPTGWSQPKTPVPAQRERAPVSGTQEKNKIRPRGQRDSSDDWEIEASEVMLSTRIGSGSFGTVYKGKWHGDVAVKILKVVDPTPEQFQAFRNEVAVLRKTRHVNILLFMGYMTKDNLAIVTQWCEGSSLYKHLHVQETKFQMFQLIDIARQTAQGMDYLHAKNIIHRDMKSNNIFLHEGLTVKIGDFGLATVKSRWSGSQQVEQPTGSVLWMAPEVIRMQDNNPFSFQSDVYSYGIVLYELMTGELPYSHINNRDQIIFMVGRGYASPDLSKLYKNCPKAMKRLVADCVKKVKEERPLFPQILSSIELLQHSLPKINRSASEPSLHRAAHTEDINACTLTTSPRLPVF
Experimental: as §1

Row | GI50 [1] [nM] | IC50 [2] [nM] | IC50 [3] [nM] | IC50 [4] [nM] | Structure (SMILES)
1 | > 10000 | – | – | – | CCCS(=O)(=O)Nc1ccc(F)c(C(=O)c2c[nH]c3ncc(-c4ccc(Cl)cc4)cc23)c1F [Control, vemurafenib, reference compound]
2 | 231 | 30 | 392 | 21 | Cc1ccc2c(Nc3ccc(O)c(Cl)c3F)nccc2c1NC(=O)c1csc2c(N)ncnc12 [Compound•2HCl, 4-amino-N-(1-((3-chloro-2-fluoro-4-hydroxyphenyl)amino)-6-methylisoquinolin-5-yl)thieno[3,2-d]pyrimidine-7-carboxamide dihydrochloride]
